In series [1] the target is T1, TACE (crude extracted protein from membrane fraction of THP-1 cells) (Homo sapiens, UniProt P78536).
T1 construct: The supernatant was collected, which was provided for use as a TACE crude extract; endogenous in cells; host or cells: THP-1 cells stimulated with LPS, silica and hydroxyurea; membrane fraction solubilised with 1% Triton X-100
In words: In vitro TACE inhibitory activity (fluorogenic peptide substrate). As to conditions: crude TACE 10 μg/mL, substrate 20 μM, room temperature, at least 4 hours. Type of series: biochemical. On the procedure:
Test 1 (In Vitro TACE Inhibitory Activity)
(1) Crude Extraction of TACE from THP-1 Cell Membrane
To THP-1 cells (cell density: 2×10^6/mL) suspended in RPMI 1640 medium containing 1% FBS were added LPS (E. coli 055:B55, final concentration: 1 pg/mL), silica (0.014 μm, final concentration: 50 μg/mL) and hydroxyurea (final concenration: 2 mM), followed by cultivation at 37° C. for 16 hours under 5%-CO2 conditions. The resulting cells were then washed once with RPMI 1640 medium free of FBS. The cells were suspended in 3 times the pellet volume of Solution A (10 mM sodium phosphate (pH 7.4), 1 mM MgCl2, 30 mM NaCl, 0.02% NaN3, 5 μM PMSF (phenyl methyl sulfonyl fluoride)). The cells were ground by a Polytron homogenizer (5 sec×5 times, ice cooling for 1 to 2 minutes each time). The homogenate solution was stacked over 41% sucrose-Solution A, followed by centrifugation (150,000 g×1 hour). After centrifugation, the intermediate layer was collected and diluted with 4 volumes of Solution A, followed by centrifugation (150,000 g×20 min). A sufficient amount of a solubilizing solution (1%-Triton X-100-A solution) was added (protein concentration: 1 mg/mL) and the mixture was stirred (4° C.×1 hour). Stirring was followed by centrifugation (100,000 g×30 min, 4° C.). The supernatant was collected, which was provided for use as a TACE crude extract.
(2) Measurement of TACE Inhibitory Activity
TACE (crude extracted protein from membrane fraction of THP-1 cells, final concentration: 10 μg/mL), each of test compounds (DMSO final concentration: 1%) shown in Table 1 and an incubate solution (50 mM Tris-HCl (pH 7.4), 5 mM CaCl2, 0.002% NaN3, 0.002% Brij 35) was added to a 96-well black plate. After pre-incubation at room temperature for 30 minutes, a substrate (N-methylanthranilyl-LAQAVRSK(DNP)rr-NH2: product of PEPTIDE INSTITUTE, INC., final concentration: 20 μM) was added, followed by incubation at room temperature for at least 4 hours. The fluorescence intensity was measured using POLAR STAR (Ex: 340 nm, Em: 430 nm) and from it, TACE inhibitory activity (IC50 value) was calculated.

A further series deals with T2, MMP-1 (Homo sapiens, UniProt P03956).
T2 construct: purchased Cosmo Bio Co
T2 sequence (P03956 100-469): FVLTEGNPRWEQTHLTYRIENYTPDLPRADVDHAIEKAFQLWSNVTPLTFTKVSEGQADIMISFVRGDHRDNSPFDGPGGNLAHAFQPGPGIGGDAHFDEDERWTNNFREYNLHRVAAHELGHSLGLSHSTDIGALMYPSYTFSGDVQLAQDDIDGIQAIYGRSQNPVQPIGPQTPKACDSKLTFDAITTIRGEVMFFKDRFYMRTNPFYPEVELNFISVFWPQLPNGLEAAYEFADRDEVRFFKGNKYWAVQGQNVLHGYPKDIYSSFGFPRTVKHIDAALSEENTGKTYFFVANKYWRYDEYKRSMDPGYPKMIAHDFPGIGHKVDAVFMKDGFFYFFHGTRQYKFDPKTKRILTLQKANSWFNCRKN
In words: Measurement of MMP-1 inhibitory activity. The following applies: MMP-1 (Cosmo Bio), fluorogenic substrate. Type of series: biochemical. On the procedure: Test 2 (Measurement of MMP-1 Inhibitory Activity)
MMP-1 inhibitory activity (IC50 value) was measured in accordance with the above-described measuring method of TACE inhibitory activity by using MMP-1 (product of Cosmo Bio Co.) and, as a substrate, 7-methoxycoumarin-4-yl-acetyl-PLGL-[N^3-(2,4-dinitrophenyl)2,3-diaminopropionyl]-AR—NH2 (product of Peptide Institute Inc.). The fluorescence intensity was measured using POLAR STAR (Ex: 340 nm, Em: 405 nm).

In series [2] the test system is secretion of TNF-α, THP-1 cells. Put plainly: Inhibitory activity against secretion of TNF-α in LPS-stimulated THP-1 cells (ELISA). The following applies: Homo sapiens, LPS 100 ng/mL, 37° C., 4 hours, ELISA of supernatant. The series is classed as cell-based. On the procedure:
Test 3 (Measurement of Inhibitory Activity Against on of TNF-α)
To THP-1 cells (5×10^5 mL) suspended in RPMI 1640 medium containing 10% FBS were added LPS (100 ng/mL) and a medicament of various concentrations (DMSO final concentration: 0.1%), followed by incubation at 37° C. for 4 hours under 5%-CO2 conditions. The TNF-α in the cultured supernatant was analyzed by ELISA, whereby inhibitory activity (IC50) against secretion of TNF-α was calculated.
(In general: ELISA stands for enzyme-linked immunosorbent assay.)

T1 sequence (P78536 215-824): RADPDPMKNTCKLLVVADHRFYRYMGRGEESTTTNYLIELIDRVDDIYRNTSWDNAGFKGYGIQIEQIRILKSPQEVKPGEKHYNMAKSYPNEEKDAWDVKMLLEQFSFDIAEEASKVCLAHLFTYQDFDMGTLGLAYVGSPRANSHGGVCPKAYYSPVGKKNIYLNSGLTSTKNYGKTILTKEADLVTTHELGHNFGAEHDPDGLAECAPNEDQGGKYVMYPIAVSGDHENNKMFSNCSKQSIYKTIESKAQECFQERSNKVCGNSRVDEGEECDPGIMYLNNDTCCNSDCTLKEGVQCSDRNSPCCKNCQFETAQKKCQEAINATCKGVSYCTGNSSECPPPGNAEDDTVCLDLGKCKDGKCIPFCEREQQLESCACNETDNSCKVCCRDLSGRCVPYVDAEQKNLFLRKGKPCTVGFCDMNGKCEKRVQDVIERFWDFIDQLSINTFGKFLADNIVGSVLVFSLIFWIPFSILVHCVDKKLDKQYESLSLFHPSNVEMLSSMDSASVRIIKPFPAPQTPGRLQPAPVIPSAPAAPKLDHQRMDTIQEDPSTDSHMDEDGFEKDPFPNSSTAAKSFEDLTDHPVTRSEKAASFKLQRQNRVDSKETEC

In the case of `COc1ccc(S(=O)(=O)N(c2cccc(/C(=C\C(=O)NO)c3ccccc3)c2)C(C)C)cc1` [Compound 63, Z-3-[3-[N-(4-Methoxybenzenesulfonyl)-N-isopropylamino]phenyl]-3-phenylpropenohydroxamic Acid], the IC50 – broadly, the concentration needed to halve the response being measured – was 8.6 nM in series [1] and more than 10000 nM against MMP-1.
With `CN(c1cccc(/C(=C\C(=O)NO)c2ccccc2)c1)S(=O)(=O)c1ccc([N+](=O)[O-])cc1` [Compound 68, Z-3-[3-[N-(4-Nitrobenzenesulfonyl)-N-methylamino]phenyl]-3-phenylpropenohydroxamic Acid], the melting point (in general, the temperature of the solid-liquid transition) is 153 to 155 °C. Further, the 50% inhibitory concentration (IC50) in series [1] amounted to 35 nM. For the same compound, the IC50 against MMP-1 was more than 10000 nM.
For `CN(c1cccc(/C(=C\C(=O)NO)c2ccccc2)c1)S(=O)(=O)c1cccc2cccnc12` [Compound 73, Z-3-[3-[N-(8-Quinolinesulfonyl)-N-methylamino]phenyl]-3-phenylpropenohydroxamic Acid], the IC50 in series [1] was 29 nM; on MMP-1, more than 10000 nM.
`COc1ccc(S(=O)(=O)N(C)c2cccc(/C(=C\C(=O)NO)c3ccccc3)c2)cc1OC` [Compound 75, Z-3-[3-[N-(3,4-Dimethoxybenzenesulfonyl)-N-methylamino]phenyl]-3-phenylpropenohydroxamic acid] gave a melting point of 98 to 101 °C. Moreover, in series [2], the IC50 turned out to be 6400 nM. Also, in series [1], the IC50 was 13 nM. Also, the IC50 at MMP-1 is more than 10000 nM.
For `COc1ccc(S(=O)(=O)N(c2cccc(/C(=C\C(=O)NO)c3cccnc3)c2)C(C)C)cc1` [Compound 88, E-3-[3-[N-(4-Methoxybenzenesulfonyl)-N-isopropylamino]phenyl]-3-(3-pyridyl)propenohydroxamic acid], in that order: 158 to 160 °C, 2800 nM, 6.4 nM and more than 10000 nM.
Turning to `COc1ccc(S(=O)(=O)N(C)c2cccc(/C(=C\C(=O)NO)c3cccnc3)c2)cc1` [Compound 89, E-3-[3-[N-(4-Methoxybenzenesulfonyl)-N-methylamino]phenyl]-3-(3-pyridyl)propenohydroxamic Acid], the IC50 was 4100 nM in series [2], 7 nM in series [1] and more than 10000 nM against MMP-1.
Consider `COc1ccc(S(=O)(=O)N(c2cccc(/C(=C\C(=O)NO)c3ccc[n+]([O-])c3)c2)C(C)C)cc1` [Compound 93, E-3-[3-[N-(4-methoxybenzenesulfonyl)-N-isopropylamino]phenyl]-3-(3-pyridyl N-oxide)propenohydroxamic Acid], for which the half-inhibitory concentration (IC50) was 5500 nM in series [2], 13 nM in series [1] and more than 10000 nM against MMP-1.
As to `COc1ccc(S(=O)(=O)N(C)c2cccc(/C(=C\C(=O)NO)c3ccc[n+]([O-])c3)c2)cc1` [Compound 94, E-3-[3-[N-(4-Methoxybenzenesulfonyl)-N-methylamino]phenyl]-3-(3-pyridyl N-oxide)propenohydroxamic Acid], the concentration for half-maximal inhibition (IC50) in series [1] was 13 nM; against MMP-1, more than 10000 nM.
